We go through 1 compound from patent publication US10597735B2, “Antibacterial and plasmid elimination agents” (priority 2006, dated 2020).

For orientation: MBC means the lowest tested concentration that kills the bacteria rather than only halting them. A higher MBC goes with weaker bactericidal potency.

Assay [1] has as its target T1, ClpXP (Escherichia coli, UniProt P0A6G7+P0A6H1). Description: ClpXP degradation of GFP-tag in the presence of SspB, continuous fluorimetric assay (Examples 1-2). The assay is classed as biochemical, E. coli. As to conditions: SspB present. As to the method:
(§1) ClpXP Proteolysis: PD buffer contained 25 mM HEPES-KOH (pH 7.6), 5 mM KCl, 5 mM MgCl2, 0.032% NP-40, 5 mM ATP, and 10% glycerol. The ATP regenerating system consisted of 8 mM creatine phosphate and 0.16 mg/ml creatine kinase. Inhibition experiments were performed using a Hitachi F-2000 Fluorescence Spectrophotometer. The rate of GFP-ssrA degradation was monitored at 30° C. for 5 minutes by the loss of fluorescence (excitation 488 nm; emission 507 nm). Competition experiments with increasing concentrations of peptide were performed using GFP-ssrA (0.2 μM), ClpX6 (0.3 ArM), ClpP14 (0.8 μM), and SspB2 (0.3 μM) in PD buffer plus 200 mM KCl and ATP regenerating system. Curve fitting for the competitive inhibition assays were performed using the Scientist program (MicroMath Scientific Software, Inc.).
Characterization of ClpXP inhibitors in vitro: Two of the selected cyclic peptides were synthesized in vitro to examine their effects on enzymatic assays. Peptides with the sequence SGWRVQGPL (SEQ ID NO: 1) and SGSKGVLPL (SEQ ID NO: 2) were chemically synthesized in the linear form, circularized, and purified by HPLC. The effects of these peptides on the activity of purified ClpXP were determined in vitro using a continuous fluorimetric assay. GFP-tag, SspB, ClpX and ClpP were each purified from over-expressing strains of E. coli, and degradation of GFP-tag was monitored by loss of fluorescence. In reactions containing all components, GFP-tag was degraded with kinetic parameters kcat=1.79±0.08 min−1, KM=0.74±0.04, similar to the previously published values of 1.44 min^−1 and 0.96 μM. […] For both cyclic peptides, inhibition of ClpXP was reversible, as no inhibition was observed when ClpXP was incubated with peptide at concentrations above the Kr, and dialyzed to remove unbound peptide before addition of enzyme to the reaction. The linear versions of SGSKGVLPL (SEQ ID NO: 2) and SGWRVQGPL (SEQ ID NO: 1) had Kb, values >1 mM (Table 4), so the cyclic architecture is likely to be important for inhibition.

Assay [2] addresses T1, ClpXP. Description: ClpXP degradation of GFP-tag in the absence of SspB (Examples 1-2). The assay is classed as biochemical, E. coli. The settings on record: no SspB. As to the method: as §1
A priori, there are several steps in the degradation pathway that could be inhibited by the selected cyclic peptides: binding of the substrate-SspB complex to ClpXP, ATPase activity of ClpX, and hydrolysis of the peptide bond by ClpP. Molecules that block the binding of substrate to SspB should not be inhibitors of proteolysis by ClpXP, because ClpXP will degrade tmRNA-tagged substrates in the absence of SspB. To determine if the inhibitors act through SspB, the kinetic assays were repeated in the absence of this proteolytic adaptor.

Assay [3] concerns the target T1, ClpXP. As to the kind of experiment: biochemical. The assay is classed as biochemical, E. coli. The settings on record: SspB present. As to the method:
In vitro proteolysis assays: Proteolysis of GFP-tag was performed using a continuous fluorescence assay essentially as previously described (Levchenko et al. 2000, Science 289: 2354-2356). Briefly, loss of GFP fluorescence was monitored at 507 nm after excitation at 395 nm at 30° C. using a Hitachi F-2000 Fluorescence Spectrophotometer in buffer R (25 mM HEPES-KOH (pH 7.6), 5 mM MgCl2, 50 mM KCl, 0.032% NP-40, 10% glycerol, and an ATP regeneration system containing 4 mM ATP (pH 7), 16 mM creatine phosphate and 0.32 mg/ml creatine kinase). Typically, reactions contained […], 0.3 μM ClpP14, and equimolar concentrations (0.2 μM-2.0 μM) GFP-tag and SspB. Degradation of GFP-tag protein was confirmed by SDS-PAGE assays. To examine inhibition of GFP-tag proteolysis, peptides were incubated with ClpXP in reaction buffer for 5 min prior to the addition of GFP-tag. Plots of fluorescence versus time were fit with a single exponential function to determine the initial rate of proteolysis. Kinetic parameters were estimated using Eadie-Hofstee plots.
Proteolysis of GFP-tag in the presence of ClpXP and SspB was monitored by loss of GFP fluorescence in a continuous fluorometric assay. In the absence of cyclic peptide, GFP-tag was degraded with kinetic parameters kcat=[…], KM=0.74±0.04 μM. […] Likewise, no degradation was observed when ClpX or ClpP were omitted from the reaction.

Assay [4] has as its target T1, ClpXP. Description: Proteolysis of λO protein by ClpXP, SDS-PAGE (Example 3). Format: biochemical, E. coli.
Experimental: Proteolysis of λO protein was assayed by incubating 1 μM λO with 0.1 μM ClpX6, 0.3 μM ClpP14 in buffer R at 30° C. At various times the reaction was sampled, the reaction was terminated by boiling in SDS-PAGE loading buffer, and analyzed using SDS-polyacrylamide gels stained with Coomassie blue. The intensity of the band corresponding to intact λO protein was measured using ImageQuant software (Molecular Dynamics), and plots of the intensity versus time were fit with single exponential functions to determine the half-life of λO protein.
To determine if IXP1 inhibits proteolysis of ClpXP substrates recognized by an epitope distinct from the tmRNA tag, λO protein was used as an assay substrate. […] Degradation of λO was assayed in the presence and absence of IXP1 by following the loss of intact λO protein on SDS-polyacrylamide gels (FIG. 7).
The next assay has as its system C. crescentus. The assay is classed as cell-based, Caulobacter crescentus. As to conditions: C. crescentus, 99.9% colony reduction; listed as cyclic XB. As to the method:
Antibacterial activity assays: To measure the effects of peptides on bacterial growth, cultures of C. crescentus were diluted to OD600=0.001, peptide was added at various concentrations, the cultures were incubated at 30° C. for 14 h, and the MIC was determined as the lowest concentration of peptide that prevented growth. To determine the MBC, each culture was diluted 1:100 in PYE and 10 μl of the diluted culture was spread onto PYE agar plates, incubated at 30° C. overnight, and the number of colonies on each plate was counted. The MBC was assigned as the concentration of peptide that reduced the number of colonies by 99.9% compared to cultures with no inhibitor.

≈ marks a conversion by molar mass, not a printed value. Where a SMILES comes first, the peptide text is derived from it.

T1 sequence (P0A6G7 15-207): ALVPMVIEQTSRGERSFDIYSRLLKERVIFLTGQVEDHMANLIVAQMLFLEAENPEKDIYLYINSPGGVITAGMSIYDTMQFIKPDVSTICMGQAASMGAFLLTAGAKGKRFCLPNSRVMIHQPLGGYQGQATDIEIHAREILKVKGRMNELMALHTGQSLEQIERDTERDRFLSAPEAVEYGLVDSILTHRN
T1 sequence (P0A6H1 whole entry): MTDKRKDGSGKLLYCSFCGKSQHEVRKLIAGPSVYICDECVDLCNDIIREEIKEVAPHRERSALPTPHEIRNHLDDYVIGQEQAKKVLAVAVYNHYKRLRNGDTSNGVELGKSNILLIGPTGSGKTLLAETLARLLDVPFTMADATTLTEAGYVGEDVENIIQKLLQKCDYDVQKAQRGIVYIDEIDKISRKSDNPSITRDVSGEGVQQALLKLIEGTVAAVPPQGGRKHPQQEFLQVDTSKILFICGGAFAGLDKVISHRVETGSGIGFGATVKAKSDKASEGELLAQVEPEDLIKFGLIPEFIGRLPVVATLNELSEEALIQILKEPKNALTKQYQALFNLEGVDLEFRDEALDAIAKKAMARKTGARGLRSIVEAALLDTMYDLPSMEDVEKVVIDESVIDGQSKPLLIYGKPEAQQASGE

Turning to `CC(C)C[C@@H]1NC(=O)[C@H](C)NC(=O)[C@@H]2CCCN2C(=O)[C@H](CCCNC(=N)N)NC(=O)CNC(=O)CNC(=O)[C@H](CCCNC(=N)N)NC(=O)[C@H](CS)NC(=O)[C@H](CCCCN)NC(=O)[C@H](C(C)C)NC(=O)[C@H](C(C)C)NC(=O)[C@H](CCCNC(=N)N)NC1=O` [cycXB, CRGGRPALRVVK] (HELM PEPTIDE1{A.L.R.V.V.K.C.R.G.G.R.P}$PEPTIDE1,PEPTIDE1,1:R1-12:R2$$$V2.0), on ClpXP [1], the “KI fold lower than the linear XB peptide” value is on record as 7 fold and the “KI fold lower than the selected cyclic peptide inhibitors” value was 2-3 fold. The “inhibition of GFP-tag degradation by ClpXP in the absence of SspB” value against ClpXP [2] is “inhibited”. Also, the “KI fold lower than the linear XB peptide” value at ClpXP [3] worked out at 7 fold. Moreover, the “inhibition of λO degradation by ClpXP” value on ClpXP [4] is given as “did not inhibit”. This compound also registered an MBC with C. crescentus of 40 ± 6 µM (≈ 51.7 µg/mL).
